Source: patent US20250154105A1, “POLYCYCLIC COMPOUND AND USE THEREOF” (TYK MEDICINES, INC., priority 2021, published 2025)

Legend:
YAP-TEAD = YAP-TEAD inhibitor activity by Nano luciferase method (8xGTiiC-nLuc reporter in 293T cells); type: cell-based; conditions: Homo sapiens, HEK-293T, 48 hours incubation, read-out: Nano-luciferase detection (IC50)
How it was run: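 293T cells transiently transfected with pGL3B-8xGTiiC-nLuc-CMV-fLuc, seeded 2000 cells/well, then treated 48 h at 37 °C with compounds in 1:3.16 dilution series (top 10,000 nM). Nano luciferase signal read after cell lysis; IC50 from percent of 0 nM control.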

[1] = Rat pharmacokinetic experiment; type: in vivo; conditions: po, male SD rats, gavage (p.o.), 10 mg/kg, plasma
Description: TEST EXAMPLE 3 PHARMACOKINETIC EXPERIMENT OF COMPOUNDS
Pharmacokinetic test of compounds T-32/T-105/T-253/T-272/T-273/T-277 of the present invention.
Experimental Protocol of Rat Pharmacokinetics
• (1) Required animals: healthy adult SD rats, male, 3 rats, 6-8 weeks old; weighing 200-300 g. • (2) Required equipments: analytical balance, animal weight scale, magnetic stirrer, refrigerated centrifuge, single-channel manual pipettor, etc. • (3) Required reagents: EDTA-Na2 anticoagulant, etc. 11.2 g of EDTA-Na2 was weighed and placed in a reagent flask, 100 mL of normal saline was added, and the flask was shook to completely dissolve it. After the preparation was completed, it was divided into 1.5 mL centrifuge tubes with 20 uL each for whole blood sample collection. • (3) About 10 mg of the sample to be tested was accurately weighed, 5% DMSO after conversion was added to dissolve, then 30% PEG400 and 65% (10% Hp-β-CD in PBS) were added for sonication, and vortex-mixed evenly to obtain a solution with a concentration of 1 mg/mL which is freshly prepared before use. • (4) 0.1 mL of sample was taken into a 1.5 mL centrifuge tube and stored at −80° C. for concentration analysis of drug administration solution. • (5) Animals were kept in rat cages, and fasted (not less than 10 h) from the day before the test(but water was allowed). The animals were separately weighed and marked at the tail on the day of the test. Blank blood was collected before administration. The blood was collected from tail vein. • (6) Route of administration: gavage (p.o.); dosage: 10 mg/kg; administration volume: 10 mL/kg. • (7) Operation process: Use the left hand with anti-bite gloves to catch the rat, make it stand upright, stretch the 16th gastric lavage needle from the throat of the mouth, insert the needle when feeling out no obvious resistance, and then inject the drug into the stomach. • (8) 0.2 ml of whole blood was collected from the tested animals and added into EDTA-Na2 anticoagulant tubes before administration and 0.5 h, 1 h, 2 h, 4 h, 6 h, 8 h, 12 h and 24 h after administration respectively. The tubes were reversed up and down for 3-4 times and mixed evenly, centrifuged at 4° C. at 10000 g for 5 min to separate plasma, and stored at −80° C. for testing. The blood was collected from tail vein. • (9) LC-MS/MS method was established to determine the concentration of original drug in plasma, the blood drug concentration-time curve was drawn, and the main pharmacokinetic parameters were calculated by non-compartment model. • (10) Pharmacokinetic parameters of T-32/T-105/T-253/T-272/T-273/T-277 were shown below in Table 2.

IC50 (YAP-TEAD) | AUC(0-t) [1] | Cmax [1] | MRT last [1] | Tmax [1] | SMILES
≤ 1000 nM | 21200 ng·h/mL | 1410 ng/mL | 9.96 h | 5.3 h | C[C@H](NC(=O)c1ccc2c(c1)c1ccccc1c(=O)n2-c1ccc(C(F)(F)F)cc1)c1ccccn1 [Example T-272]
≤ 1000 nM | 26900 ng·h/mL | 2650 ng/mL | 7.28 h | 4.7 h | Cc1cc(=O)n(-c2ccc(C(F)(F)F)cc2)c2ccc(C(=O)N[C@@H](C)c3ccccn3)cc12 [Example T-277]

Further lines, the compound ahead of its results:

SMILES | IC50 (YAP-TEAD) | AUC(0-t) [1] | Cmax [1] | MRT last [1] | Tmax [1]
C[C@H](NC(=O)c1ccc2c(c1)c1cnccc1c(=O)n2-c1ccc(C(F)(F)F)cc1)c1ccccn1 [Example T-253] | ≤ 1000 nM | 39200 ng·h/mL | 2640 ng/mL | 9.78 h | 4.7 h
C[C@H](NC(=O)c1ccc2c(c1)c1nn(C)cc1c(=O)n2-c1ccc(C(F)(F)F)cc1)c1ccccn1 [Example T-105] | ≤ 1000 nM | 53900 ng·h/mL | 3870 ng/mL | 9.48 h | 4 h
CNS(=O)(=O)c1ccc2c(c1)c1cn(C)nc1c(=O)n2-c1ccc(C(F)(F)F)cc1 [Example T-32] | ≤ 1000 nM | 22200 ng·h/mL | 2220 ng/mL | 6.88 h | 2.5 h
